Data: US12415794B2 (Edgewise Therapeutics, Inc., priority 2018, dated 2025)

Tests used:
[1] = biological target: skeletal myofibrils (myosin ATPase); experiment: Skeletal Myofibril ATPase Assay; format: biochemical
Method: FIG. 7 depicts the buffer preparation procedures of Buffer A and Buffer B for the skeletal myofibril ATPase assay described in Example 12. Buffers were stored on ice until use.
Example 12: Skeletal Myofibril ATPase Assay
(§1) Overview: Myosin ATPase activity is assessed by using a coupled reaction system, in which ADP generated by the myosin ATPase function is coupled to the disappearance of NADH through the pyruvate kinase/lactate dehydrogenase (PK-LDH) system. ATPase activity produces ADP, which is used as a substrate for PK to produce pyruvate and regenerate ATP. The pyruvate is then used as a substrate by LDH to oxidize NADH to NAD+. The rate of the reaction is monitored through the time-dependent disappearance of NADH using absorbance at 340 nm. Inhibition of ATPase activity by the assayed compounds is indicated by a reduced rate of NADH loss, relative to vehicle-treated controls, over the experimental time window. To assess the selectivity of the assayed compounds for skeletal myofibrils, the compounds are counter-screened in cardiac myofibrils.
Materials: The following stock solutions and reagents were used in the Skeletal Myofibril ATPase Assay:
Stock Solutions of pCa buffer. Combine PIPES, CaCl2, and EGTA solutions with 70 mL of water. Adjust pH to 7.0 and bring final volume to 100 mL.
Skeletal Myofibril ATPase Assay Procedure: BSA, ATP, NADH, PEP, and DTT solutions were thawed at room temperature, then transferred to ice. Pellet-frozen myofibrils were transferred with approximately twice the required volume into a sufficiently large tube and capped. Myofibrils were thawed by rolling in a water bath for approximately 15 min at room temperature and cooled on ice. Buffers A and B were prepared by adjusting volumes as necessary for required number of wells and stored on ice. 0.5 μL of the compounds to be assayed were added into wells. 25 μL of Buffer A was dispensed into the wells, followed by 25 μL of Buffer B. The wells were measured for absorbance at 340 nm, using a kinetic protocol in which the wells are read every 1.5-2 min for 45 min. The slope of the data was approximated by subtracting the minimum absorbance value from the maximum value for each well. This was accomplished either in the SoftMax Pro software or in a spreadsheet program such as Excel. Using GraphPad Prism 8.0, the data was normalized by assigning a value of 100% to the 1% DMSO vehicle wells. Typically, a normalized 0% value was simply assigned to a (Max−Min) value of 0. The normalized data was fit to a Four Parameter Logistic sigmoidal equation, constraining the bottom to be 0 or greater. Compounds of Table 1, 2, and 3 were tested and results of the assay appear in Tables 4a-4c. A=IC50 is less than or equal to 10 μM; B=IC50 is greater than 10 μM and less than 100 μM; C=IC50 is greater than 100 μM.

[2] = biological target: T1, cardiac myofibrils (myosin ATPase); experiment: Cardiac Myofibril ATPase Assay (counter screen); format: biochemical; details: myofibrils 1.0 mg/mL, KCl omitted
T1 construct: frozen myofibril pellets obtained from cardiac tissue; from tissue
Method: as §1
Example 13: Cardiac Myofibril ATPase Assay
Following example 11, the counter screen was done using frozen myofibril pellets obtained from cardiac tissue. The assay was done in the same manner as above, with the following notable exceptions: the final well concentration of myofibrils was 1.0 mg/mL and KCl was omitted from the recipe.
Compounds of Table 1 to 3 were tested, and results of the assays appear in Tables 5a-5c herein. A=IC50 is less than or equal to 10 μM; B=IC50 is greater than 10 μM and less than 100 μM; C=IC50 is greater than 100 μM; and […].

T1 sequence (P12883 whole entry): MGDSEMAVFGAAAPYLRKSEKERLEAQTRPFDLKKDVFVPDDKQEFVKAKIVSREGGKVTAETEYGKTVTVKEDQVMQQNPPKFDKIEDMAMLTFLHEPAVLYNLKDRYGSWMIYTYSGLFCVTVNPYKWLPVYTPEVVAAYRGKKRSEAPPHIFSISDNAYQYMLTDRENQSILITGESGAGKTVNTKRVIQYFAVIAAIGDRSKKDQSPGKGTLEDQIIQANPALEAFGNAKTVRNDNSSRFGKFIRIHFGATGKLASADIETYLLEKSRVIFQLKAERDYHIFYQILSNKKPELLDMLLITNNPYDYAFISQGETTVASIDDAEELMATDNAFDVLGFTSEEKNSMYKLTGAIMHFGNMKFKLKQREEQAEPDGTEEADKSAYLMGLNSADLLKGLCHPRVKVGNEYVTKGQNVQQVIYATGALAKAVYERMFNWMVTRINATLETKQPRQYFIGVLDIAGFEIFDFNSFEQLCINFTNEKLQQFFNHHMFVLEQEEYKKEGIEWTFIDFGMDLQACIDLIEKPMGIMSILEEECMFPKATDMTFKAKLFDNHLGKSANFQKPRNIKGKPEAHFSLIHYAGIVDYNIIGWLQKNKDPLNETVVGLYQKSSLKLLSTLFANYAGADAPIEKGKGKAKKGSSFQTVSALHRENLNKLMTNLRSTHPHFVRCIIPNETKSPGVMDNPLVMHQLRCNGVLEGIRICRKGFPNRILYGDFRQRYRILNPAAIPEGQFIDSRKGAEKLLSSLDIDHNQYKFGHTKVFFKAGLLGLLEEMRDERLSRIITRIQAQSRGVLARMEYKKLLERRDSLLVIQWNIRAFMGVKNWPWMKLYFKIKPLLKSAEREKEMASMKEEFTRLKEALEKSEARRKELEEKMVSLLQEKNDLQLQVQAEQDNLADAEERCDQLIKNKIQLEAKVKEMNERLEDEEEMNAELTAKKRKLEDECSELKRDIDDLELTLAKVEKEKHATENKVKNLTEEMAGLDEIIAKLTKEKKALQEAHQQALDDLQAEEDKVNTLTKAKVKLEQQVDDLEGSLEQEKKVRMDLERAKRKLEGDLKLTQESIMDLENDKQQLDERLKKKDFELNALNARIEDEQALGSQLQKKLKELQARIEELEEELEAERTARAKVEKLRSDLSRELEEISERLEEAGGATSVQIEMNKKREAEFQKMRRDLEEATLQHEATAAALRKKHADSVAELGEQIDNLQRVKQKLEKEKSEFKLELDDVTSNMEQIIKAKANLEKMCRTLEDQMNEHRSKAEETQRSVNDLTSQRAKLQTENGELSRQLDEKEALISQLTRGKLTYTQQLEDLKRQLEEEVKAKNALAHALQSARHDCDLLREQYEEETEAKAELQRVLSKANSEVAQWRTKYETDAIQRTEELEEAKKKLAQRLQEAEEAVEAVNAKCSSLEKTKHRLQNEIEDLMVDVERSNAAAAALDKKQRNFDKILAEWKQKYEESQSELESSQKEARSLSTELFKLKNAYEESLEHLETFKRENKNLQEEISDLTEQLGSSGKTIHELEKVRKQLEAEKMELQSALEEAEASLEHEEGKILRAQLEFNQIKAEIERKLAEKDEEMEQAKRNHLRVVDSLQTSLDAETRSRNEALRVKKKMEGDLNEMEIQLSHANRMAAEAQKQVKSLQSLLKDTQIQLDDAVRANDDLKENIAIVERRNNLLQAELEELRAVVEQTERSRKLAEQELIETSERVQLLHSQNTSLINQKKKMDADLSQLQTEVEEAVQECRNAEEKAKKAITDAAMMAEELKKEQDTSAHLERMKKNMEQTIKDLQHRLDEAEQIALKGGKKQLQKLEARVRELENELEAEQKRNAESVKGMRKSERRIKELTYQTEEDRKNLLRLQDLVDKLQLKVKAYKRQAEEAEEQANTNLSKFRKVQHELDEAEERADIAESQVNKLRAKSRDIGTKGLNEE
T1 sequence (P08590 whole entry partner): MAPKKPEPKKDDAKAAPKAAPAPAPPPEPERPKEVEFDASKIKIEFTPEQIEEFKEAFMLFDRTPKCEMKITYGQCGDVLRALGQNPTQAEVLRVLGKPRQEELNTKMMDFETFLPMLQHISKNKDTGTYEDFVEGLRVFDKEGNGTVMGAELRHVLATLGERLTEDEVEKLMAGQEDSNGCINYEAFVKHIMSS
T1 sequence (P10916 whole entry partner): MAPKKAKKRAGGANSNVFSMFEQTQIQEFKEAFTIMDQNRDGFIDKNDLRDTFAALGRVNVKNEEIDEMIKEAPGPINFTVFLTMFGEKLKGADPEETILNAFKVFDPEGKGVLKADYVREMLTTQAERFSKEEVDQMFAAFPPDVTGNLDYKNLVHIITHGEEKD

Molecule | IC50 ([1]; Table 4C) [µM] | IC50 ([2]; Table 5C) [µM] | also measured
Cc1ccc(-c2ccc(=O)n(CC(=O)NCCc3ccccc3)n2)cc1 [IIIc-3, 2-(6-oxo-3-(p-tolyl)pyridazin-1(6H)-yl)-N-phenethylacetamide] | < 10 | > 100 | –
CCNC(=O)Cn1nc(-c2ccc(NC3CCOCC3)nc2)ccc1=O [Compound I-45, N-ethyl-2-(6-oxo-3-(6-((tetrahydro-2H-pyran-4-pyran-4-yl)amino)pyridin-3-yl)pyridazin-1(6H)-yl)acetamide] | – | – | IC50 ([1]; Table 4A): > 100 µM; IC50 ([2]; Table 5A): > 100 µM
COc1ccc(-c2ccc(=O)n(CC(=O)Nc3ccc4c(c3)OCCO4)n2)cc1 [IIIb-16, N-(2,3-dihydrobenzo[b][1,4]dioxin-6-yl)-2-(3-(4-methoxyphenyl)-6-oxopyridazin-1(6H)-yl)acetamide] | < 10 | > 100 | –
CCNC(=O)Cn1nc(-c2ccc(NC(C)(C)C)nc2)ccc1=O [Compound I-53, 2-(3-(6-(tert-butylamino)pyridin-3-yl)-6-oxopyridazin-1(6H)-yl)-N-ethylacetamide] | – | – | IC50 ([1]; Table 4A): < 10 µM; IC50 ([2]; Table 5A): > 100 µM
COc1ccc(-c2ccc(=O)n(CC(=O)NCc3ccccc3Cl)n2)c(F)c1 [IIIa-13, N-(2-chlorobenzyl)-2-(3-(2-fluoro-4-methoxyphenyl)-6-oxopyridazin-1(6H)-yl)acetamide] | < 10 | > 100 | –
COc1ccc(-c2ccc(=O)n(CC(=O)NC3CCCC3)n2)cc1 [IIIb-23, N-cyclopentyl-2-(3-(4-methoxyphenyl)-6-oxopyridazin-1(6H)-yl)acetamide] | 10 to 100 | > 100 | –
COc1ccc(-c2ccc(=O)n(CC(=O)NCc3cnn(C)c3)n2)cc1 [IIIa-32, 2-(3-(4-methoxyphenyl)-6-oxopyridazin-1(6H)-yl)-N-((1-methyl-1H-pyrazol-4-yl)methyl) acetamide] | > 100 | > 100 | –
O=C(Cn1nc(-c2ccccc2)ccc1=O)Nc1ccccc1Cl [IIIc-56, N-(2-chlorophenyl)-2-(6-oxo-3-phenylpyridazin-1(6H)-yl)acetamide] | 10 to 100 | > 100 | –
COc1ccc(-c2ccc(=O)n(CC(=O)NC3Cc4ccccc4C3)n2)cc1 [IIIb-8, N-(2,3-dihydro-1H-inden-2-yl)-2-(3-(4-methoxyphenyl)-6-oxopyridazin-1(6H)-yl)acetamide] | < 10 | > 100 | –
O=C(Cn1nc(-c2ccc(OCC(F)(F)F)nc2)ccc1=O)NC1CCC1 [Compound I-56, N-cyclobutyl-2-(6-oxo-3-(6-(2,2,2-trifluoroethoxy)pyridin-3-yl)pyridazin-1(6H)-yl)acetamide] | – | – | IC50 ([1]; Table 4A): < 10 µM; IC50 ([2]; Table 5A): 10 to 100 µM
COc1ccc(-c2ccc(=O)n(CC(=O)NCC3CCOCC3)n2)cc1 [IIIa-29, 2-(3-(4-methoxyphenyl)-6-oxopyridazin-1(6H)-yl)-N-((tetrahydro-2H-pyran-4-yl)methyl) acetamide] | > 100 | > 100 | –
O=C(Cn1nc(-c2ccc(Cl)cc2)ccc1=O)Nc1ccccc1F [IIIc-27, 2-(3-(4-chlorophenyl)-6-oxopyridazin-1(6H)-yl)-N-(2-fluorophenyl)acetamide] | 10 to 100 | > 100 | –
COCCNC(=O)Cn1nc(-c2ccc(OC)cc2)ccc1=O [IIIb-47, N-(2-methoxyethyl)-2-(3-(4-methoxyphenyl)-6-oxopyridazin-1(6H)-yl)acetamide] | > 100 | > 100 | –
CNC(=O)Cn1nc(-c2ccc(OC)cc2)ccc1=O [IIIa-21, 2-(3-(4-methoxyphenyl)-6-oxopyridazin-1(6H)-yl)-N-methylacetamide] | 10 to 100 | > 100 | –
COc1ccc(-c2ccc(=O)n(CC(=O)NCc3cccc(C)c3)n2)cc1 [IIIa-10, 2-(3-(4-methoxyphenyl)-6-oxopyridazin-1(6H)-yl)-N-(3-methylbenzyl) acetamide] | < 10 | > 100 | –
COc1ccc(-c2ccc(=O)n(CC(=O)NCc3ccc(OC)c(OC)c3)n2)cc1 [IIIb-49, N-(3,4-dimethoxybenzyl)-2-(3-(4-methoxyphenyl)-6-oxopyridazin-1(6H)-yl)acetamide] | > 100 | > 100 | –

Molecule | IC50 ([1]; Table 4C) [µM] | IC50 ([2]; Table 5C) [µM] | also measured
CCNC(=O)Cn1nc(-c2ccc(OC)cc2)ccc1=O [IIIa-3, N-ethyl-2-(3-(4-methoxyphenyl)-6-oxopyridazin-1(6H)-yl)acetamide] | < 10 | > 100 | –
CCNC(=O)Cn1nc(-c2ccc(OC3COC3)nc2)ccc1=O [Compound I-25, N-ethyl-2-(3-(6-(oxetan-3-yloxy)pyridin-3-yl)-6-oxopyridazin-1(6H)-yl)acetamide] | – | – | IC50 ([1]; Table 4A): > 100 µM; IC50 ([2]; Table 5A): > 100 µM
COc1ccc(-c2ccc(=O)n(CC(=O)NCc3ccc(Cl)cc3)n2)cc1 [IIIa-17, N-(4-chlorobenzyl)-2-(3-(4-methoxyphenyl)-6-oxopyridazin-1(6H)-yl)acetamide] | < 10 | > 100 | –
N-cyclobutyl-2-[3-[2-(2-methylpropoxy)pyrimidin-5-yl]-6-oxopyridazin-1-yl]acetamide [Compound I-79] | – | – | IC50 ([1]; Table 4A): > 100 µM; IC50 ([2]; Table 5A): > 100 µM
COc1ccc(-c2ccc(=O)n(CC(=O)NCc3ccccc3Cl)n2)cc1C [IIIa-23, N-(2-chlorobenzyl)-2-(3-(4-methoxy-3-methylphenyl)-6-oxopyridazin-1(6H)-yl)acetamide] | 10 to 100 | > 100 | –
COc1ccc(-c2ccc(=O)n(CC(=O)NCc3ccccc3OC)n2)cc1 [IIIb-21, N-(2-methoxybenzyl)-2-(3-(4-methoxyphenyl)-6-oxopyridazin-1(6H)-yl)acetamide] | 10 to 100 | > 100 | –
CCC(C)(C)NC(=O)Cn1nc(-c2ccc(OC(F)F)nc2)ccc1=O [Compound I-20, 2-(3-(6-(difluoromethoxy)pyridin-3-yl)-6-oxopyridazin-1(6H)-yl)-N-(tert-pentyl)acetamide] | – | – | IC50 ([1]; Table 4A): 10 to 100 µM; IC50 ([2]; Table 5A): > 100 µM
CCNC(=O)Cn1nc(-c2ccc(OC(F)F)cc2)cc(C)c1=O [II-21, 2-(3-(4-(difluoromethoxy)phenyl)-5-methyl-6-oxopyridazin-1(6H)-yl)-N-ethylacetamide] | – | – | IC50 ([1]; Table 4B): > 100 µM; IC50 ([2]; Table 5B): > 100 µM
COc1ccc(-c2ccc(=O)n(CC(=O)NCc3ccc(F)cc3)n2)c(F)c1 [IIIb-46, 2-(3-(2-fluoro-4-methoxyphenyl)-6-oxopyridazin-1(6H)-yl)-N-(4-fluorobenzyl)acetamide] | > 100 | > 100 | –
COc1ccc(-c2ccc(=O)n(CC(=O)NCc3ccno3)n2)cc1 [IIIa-34, N-(isoxazol-5-ylmethyl)-2-(3-(4-methoxyphenyl)-6-oxopyridazin-1(6H)-yl)acetamide] | > 100 | > 100 | –
COc1ccc(-c2ccc(=O)n(CC(=O)NCCc3ccccc3)n2)c(F)c1 [IIIb-9, 2-(3-(2-fluoro-4-methoxyphenyl)-6-oxopyridazin-1(6H)-yl)-N-phenethylacetamide] | < 10 | > 100 | –
CCNC(=O)Cn1nc(-c2ccc(N3CC(C)(C)C3)nc2)ccc1=O [Compound I-18, 2-(3-(6-(3,3-dimethylazetidin-1-yl)pyridin-3-yl)-6-oxopyridazin-1(6H)-yl)-N-ethylacetamide] | – | – | IC50 ([1]; Table 4A): 10 to 100 µM; IC50 ([2]; Table 5A): > 100 µM
COc1ccc(-c2ccc(=O)n(CC(=O)Nc3ccc4c(c3)OCO4)n2)c(F)c1 [IIIb-33, N-(benzo[d][1,3]dioxol-5-yl)-2-(3-(2-fluoro-4-methoxyphenyl)-6-oxopyridazin-1(6H)-yl)acetamide] | 10 to 100 | > 100 | –
CCNC(=O)Cn1nc(-c2ccc(OC(C)(F)F)cc2)ccc1=O [II-1, 2-(3-(4-(1,1-difluoroethoxy)phenyl)-6-oxopyridazin-1(6H)-yl)-N-ethylacetamide] | – | – | IC50 ([1]; Table 4B): < 10 µM; IC50 ([2]; Table 5B): 10 to 100 µM
CCOc1ccc(-c2ccc(=O)n(CCNC(=O)CC3CCCC3)n2)cc1 [IIIb-43, 2-cyclopentyl-N-(2-(3-(4-ethoxyphenyl)-6-oxopyridazin-1(6H)-yl)ethyl)acetamide] | > 100 | > 100 | –
